According to US20250352500A1, “USE OF PHENOLIC ACIDS DERIVATIVES IN TREATING ISCHEMIC STROKE” (LANZHOU UNIVERSITY, priority 2022, published 2025):

Legend:
Format in all cases: in vivo, male C57/BL mice
MCAO model mice = assay: Rotating rod (balance rod) test of motor coordination after ischemia-reperfusion
Method: (§1) Grouping and administration method: Male C57/BL mice weighing 23±1 g were randomly divided into sham operation group (SHAM), model group (MCAO), compound 2 group (100 mg/kg), and compound 1 group (50 mg/kg), with 10 mice in each group. Mice in the SHAM group underwent vascular isolation, but no […] was administered, and no treatment was given before or after surgery. The model group mice were constructed with MCAO models and were not treated before and after surgery. The treatment group was treated with compound 2 or compound 1 on the basis of the model group. Mice with a neurological score of 0 after reperfusion and those that died before 72 hours post-surgery were excluded. The administration time for animal behavior tests was seven times at 0 h, 1 day, 2 days, 3 days, 4 days, 5 days, and 6 days after reperfusion, while the administration time for other experiments was three times at 0 h, 1 day, and 2 days after reperfusion. The drug was administered through the tail vein, and the sham operation group and model group were given equal amounts of saline.
The balance rod test was used to test the motor coordination of mice. The experiment was divided into four groups: sham operation group (SHAM), model group (MCAO), compound 2 group and compound 1 group. The effects of compound 2 on the recovery of behavioral function in mice after ischemia-reperfusion were comprehensively analyzed. The rotating rod test can test the motor coordination ability of mice. The experimental procedure is set to gradually accelerate the speed of the rotating rod from 10 rpm to 40 rpm within 300 seconds. Record the time that the mouse stays on the rotating stick. The mice were trained 3 days in advance. Select mice that can stay on the rotating rod for about 300 seconds for the next experiment. The time that the mice spent on the rotating rod before the model was constructed was selected as the pre-operative test value. The trained mice were subjected to MCA occlusion for 60 minutes and then reperfusion. Mice in the SHAM group, MCAO group, Compound 2 group, and Compound 1 group underwent rotating rod testing on days 1, 3, 5, and 7 post-surgeries, respectively, and the duration of their stay on the rotating rod was recorded.
After reperfusion for 1 to 3 days, the motor coordination ability continued to decline, but gradually recovered after 3 days, but the degree of recovery was extremely low.

GFAP = GFAP immunofluorescence in brain tissue (astrocytes); conditions: 72 h ischemia-reperfusion, three days of administration; compound 2 100 mg/kg, compound 1 50 mg/kg; MCAO group 481±67; mean±SEM, n=3
Method: as §1, with “The administration time for animal behavior tests was seven times at 0 h, 1 day, 2 days, 3 days, 4 days, 5 days, and 6 days after reperfusion, while the administration time for other experiments was three times at 0 h, 1 day, and 2 days after reperfusion. The drug was administered through the tail vein, and the sham operation group and model group were given equal amounts of saline.” left out
To investigate whether compound 2 has an effect on the activation and proliferation of astrocytes during ischemia-reperfusion, this study used immunofluorescence experiments to observe and detect the fluorescence expression of GFAP in brain tissues from the sham operation group, model group, compound 2 group, and compound 1 group. […] After 72 hours of ischemia-reperfusion, the activation and proliferation of GFAP protein in astrocytes in the brain region were analyzed by immunofluorescence staining. […]

[1] = tested on: TNF-α, IL-1β, IL-6, iNOS, and COX2; assay: Immunofluorescence of pro-inflammatory factors in brain tissue; conditions: 72 h, P<0.001; for Number of pro-inflammatory factor-positive cells compared with MCAO group: three days of administration, compound 2 100 mg/kg, compound 1 50 mg/kg
Method: as §1
(§2) To investigate the effect of compounds on the expression of inflammatory factors after ischemia-reperfusion, this study used immunofluorescence experiments to observe the expression of TNF-α, IL-1β, IL-6, iNOS, and COX2 proteins in brain tissue. RT-qPCR experiments were used to detect the mRNA gene expression of pro-inflammatory factors TNF-α, IL-1β, IL-6, iNOS, and COX2 in the sham operation group, model group, compound 2 group, and compound 1 group. The concentrations of TNF-α, IL-1β, and IL-6 in brain homogenate were detected by enzyme-linked immunosorbent assay (ELISA), and the expression level of TNF-α protein in brain tissue was detected by Western blot.
(§3) After 72 hours of ischemia-reperfusion, the expression changes of inflammatory factors such as TNF-α, IL-1β, IL-6, iNOS, and COX2 in brain regions were analyzed by immunofluorescence staining. […]

TNF-α = TNF-α immunofluorescence in brain tissue; conditions: 72 h ischemia-reperfusion; compound 2 100 mg/kg, compound 1 50 mg/kg; MCAO group 361±48; mean±SEM, n=3
Method: as §1, with “The administration time for animal behavior tests was seven times at 0 h, 1 day, 2 days, 3 days, 4 days, 5 days, and 6 days after reperfusion, while the administration time for other experiments was three times at 0 h, 1 day, and 2 days after reperfusion. The drug was administered through the tail vein, and the sham operation group and model group were given equal amounts of saline.” left out
as §2, with “RT-qPCR experiments were used to detect the mRNA gene expression of pro-inflammatory factors TNF-α, IL-1β, IL-6, iNOS, and COX2 in the sham operation group, model group, compound 2 group, and compound 1 group.” left out
as §3

HIF-1α = assay: RT-qPCR of HIF-1α mRNA in brain tissue; conditions: 72 h; for HIF-1α mRNA expression level reduced compared with MCAO group: three days of administration, compound 2 100 mg/kg, compound 1 50 mg/kg
Method: as §1
HIF-1α is a sensitive regulator of oxygen homeostasis, rapidly inducing its expression after hypoxia-ischemia. It plays a wide range of roles in the pathophysiology of stroke, including neuronal survival, neuroinflammation, angiogenesis, glucose metabolism, and blood-brain barrier regulation. It can not only produce specific sensations in the case of hypoxia, but also facilitate the maintenance of oxygen homeostasis in the body. […]
After 72 hours of ischemia-reperfusion, the mRNA expression level of HIF-1α in brain tissue was detected and analyzed by RT-qPCR. […] Compared with the compound 1 group, the expression level of HIF-1α in the compound 2 group decreased by 53±11% (P<0.001). n=3, data are presented as mean±SEM, analyzed using one-way ANOVA, and subjected to Tukey's HSD test. *P<0.05, **P<0.01, ***P<0.001. ^#P<0.05, ^##P<0.01, ^###P<0.001. * indicates a comparison with the SHAM group, indicates a comparison with the Compound 2 group.

[2] = compound 2 100 mg/kg vs compound 1 50 mg/kg, P<0.001

SMILES: O=C(O)c1cc(O)ccc1O [compound 1]
- Motor coordination ability (time on rotating rod) compared with MCAO group (MCAO model mice; compound 1 50 mg/kg tail vein, time not stated): improved
- Number of GFAP-positive cells (GFAP): 327±50 /mm^2
- Number of pro-inflammatory factor-positive cells compared with MCAO group [1]: significantly decreased
- Number of TNF-α-positive cells (TNF-α): 244±36 /mm^2
- HIF-1α mRNA expression level reduced compared with MCAO group (HIF-1α): 41±13%

SMILES: O=C(O)c1cc(OP(=O)(O)O)ccc1OP(=O)(O)O [compound 2]
- Motor coordination ability (time on rotating rod) compared with model group (MCAO) (MCAO model mice; at 5 and 7 days, compound 2 100 mg/kg tail vein, P<0.05): significantly improved
- Motor coordination (time on rotating rod) compared with model group (MCAO) (MCAO model mice; at 7 days of reperfusion, compound 2 100 mg/kg tail vein, P<0.001): significantly improved
- Motor coordination ability (time on rotating rod) compared with the compound 1 group (MCAO model mice; [2]): significantly improved
- Number of GFAP-positive cells (GFAP): 195±45 /mm^2
- Density of pro-inflammatory factor-positive cells compared with the compound 1 group ([1]; compound 2 100 mg/kg vs compound 1 50 mg/kg): significantly reduced
- Number of pro-inflammatory factor-positive cells compared with MCAO group [1]: significantly decreased
- Number of TNF-α-positive cells (TNF-α): 140±35 /mm^2
- HIF-1α mRNA expression level decreased compared with the compound 1 group (HIF-1α; [2]): 53±11%
- HIF-1α mRNA expression level reduced compared with MCAO group (HIF-1α): 75±17%
